The target in one test is T1, hPTH-2 Receptor (Homo sapiens, UniProt P49190).
T1 construct: expressed in transfected cells; host or cells: LLC-PK1 porcine kidney cells (clone given as hPR2-20, hPR2-22, LLC-P2R-22 or P2R-22)
Kind of test: cAMP stimulation in LLC-P2R-22 cells (LLC-PK1 stably transfected with hPTH-2 receptor). Conditions: LLC-P2R-22 cells (hPTH-2 Receptor). It counts as cell-based. The source says:
(§1) Stably transfected derivatives of the porcine kidney cell line LLC-PK1, HKRK-B7 (Takasu, H., et al., J. Bone Miner. Res. 14:11-20 (1999)) and hPR2-20, express the human PTH-1 and human PTH-2 receptors respectively. The HKRK-B7 LLC-PK1 cell line expresses the hPTH-1 receptor at ˜1×10^6 receptors/cell (Takasu, H., et al., J. Bone Miner. Res. 14:11-20 (1999)), and the hPR2-22 LLC-PK1 cell line expresses the hPTH-2 receptor at ˜0.8×10^6 receptors/cell (provided by H. Takasu and F. R. Bringhurst, Endocrine Unit, Massachusetts General Hospital).
(§2) Stimulation of cells with peptide analogs was performed in 24-well plates. Cells were rinsed with 0.5 mL of binding buffer and treated with 200 μL of cAMP assay buffer (Dulbecco's modified Eagle's medium containing 2 mM 3-isobutyl-1-methylxanthine, 1 mg/mL bovine serum albumin, 35 mM Hepes-NaOH, pH 7.4) and 100 μL of binding buffer containing varying amounts of peptide analog (final volume=300 μL). The medium was removed after incubation for 1 h at room temperature, and the cells were frozen (−80° C.), lysed with 0.5 mL 50 mM HCl, and refrozen (−80° C.). The cAMP content of the diluted lysate was determined by radioimmunoassay. Where possible, cAMP EC50 and Maximum response values were determined using nonlinear regression (see below).
(§3) Intracellular cAMP accumulation may be measured as described by Abou-Samra et al., J. Biol. Chem. 262:1129, 1986) or other methods known to those of skill in the art. Intracellular cAMP is extracted by thawing the cells in 1 ml of 50 mM HCl and analyzed by a specific radioimmunoassay using an anti-cAMP antibody (e.g., Sigma, St. Louis, Mo.). A cAMP analog (2′-O-monosuccinyl-adenosine 3′:5′-cyclic monophosphate tyrosyl methyl ester, obtained from Sigma) which is used as a tracer for cAMP is iodinated by the chloramine T method. Free iodine is removed by adsorbing the iodinated cAMP analog onto a C18 Sep-pak cartridge (Waters, Milford, Mass.). After washing with dH2O, the iodinated cAMP analog is eluted from the Sep-pak Cartridge with 40% acetonitrille (ACN) and 0.1% trifluoroacetic acid (TFA). The iodinated cAMP analog is lyophilized, reconstituted in 1 ml 0.1% TFA, and injected into a C18 reverse phase HPLC column (Waters). The column is equilibrated with 10% ACN in 0.1% TFA, and eluted with gradient of 10-30% ACN in 0.1% TFA. This allows separation of the mono-iodinated cAMP analog from the non-iodinated cAMP analog. The tracer is stable for up to 4 months when stored at −20° C. The standard used for the assay, adenosine 3′:5′-cyclic monophosphate, is purchased from Sigma. Samples (1-10 µl of HCl extracts) or standards (0.04-100 fmol/tube) are diluted in 50 mM Na-acetate (pH 5.5), and acetylated with 10 μl of mixture of triethylamine and acetic anhydride (2:1 vol:vol). After acetylation, cAMP antiserum (100 μl) is added from a stock solution (1:4000) made in PBS (pH 7.4), 5 mM EDTA and 1% normal rabbit serum. The tracer is diluted in PBS (pH 7.4) with 0.1% BSA, and added (20,000 cpm/tube). The assay is incubated at 4° C. overnight. The bound tracer is precipitated by adding 100 μl of goat anti-rabbit antiserum (1:20 in PBS) and 1 ml of 7% polyethyleneglycol (MW 5000-6000), centrifuging at 2000 rpm for 30 min. at 4° C. The supernatant is removed and the bound radioactivity is counted in a gamma-counter (Micromedic). To compute the cAMP data, logit calculations were performed in Excel spreadsheets. Typically, the assay sensitivity is 0.1 fmol/tube, and the standard concentration that displaces 50% of tracer is 5 fmol/tube.
(§4) All calculations were performed using Microsoft Excel. Nonlinear regression analysis of cAMP stimulation data was performed using parameters, defined as the Minimum, Maximum, Emax, midpoint (EC50), and slope of the response curve. The predicted response (yp) for a given dose (x) of peptide was calculated using the following equation: yp=Min+[(Max−Min)/(1+(EC50/x)^slope)]. […]

Test [1] addresses T2, PTH-1 receptor (Homo sapiens, UniProt Q03431).
T2 sequence (Q03431 27-593): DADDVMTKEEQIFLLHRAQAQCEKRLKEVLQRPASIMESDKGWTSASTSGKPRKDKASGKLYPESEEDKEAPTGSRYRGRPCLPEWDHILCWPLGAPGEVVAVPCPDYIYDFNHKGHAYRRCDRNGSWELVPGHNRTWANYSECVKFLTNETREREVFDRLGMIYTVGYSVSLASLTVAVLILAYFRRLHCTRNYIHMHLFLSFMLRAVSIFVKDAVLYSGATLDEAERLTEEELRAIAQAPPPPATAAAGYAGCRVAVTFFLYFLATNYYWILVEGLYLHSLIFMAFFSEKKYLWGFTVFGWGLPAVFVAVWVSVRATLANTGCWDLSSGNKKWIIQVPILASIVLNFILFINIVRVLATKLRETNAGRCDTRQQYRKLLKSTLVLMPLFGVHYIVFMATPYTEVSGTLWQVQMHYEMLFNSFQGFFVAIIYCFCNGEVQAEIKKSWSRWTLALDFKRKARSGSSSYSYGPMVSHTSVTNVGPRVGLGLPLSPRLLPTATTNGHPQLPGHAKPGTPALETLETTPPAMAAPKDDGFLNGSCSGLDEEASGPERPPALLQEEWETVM
Kind of test: cAMP stimulation in HKRK-B7 cells (LLC-PK1 stably transfected with hPTH-1 receptor). It counts as cell-based. Details: expressed in transfected cells; host or cells: LLC-PK1 porcine kidney cells, clone HKRK-B7. Conditions: for cAMP signaling activity (in words) / Emax: HKRK-B7 cells; for cAMP signaling activity (in words): dose-response; for Emax: Emax constrained to ±1 SD of rPTH(1-34) response at 100 nM.
From the text: as §1, §2, §3, §4

Test [2] has as its target T3, rat PTH-1 receptor (endogenous, ROS 17/2.8 cells) (Rattus norvegicus, UniProt P25961).
T3 construct: The rat osteoblastic cell line ROS 17/2.8; endogenous in cells; host or cells: ROS 17/2.8 rat osteoblastic cells
T3 sequence (P25961 27-591): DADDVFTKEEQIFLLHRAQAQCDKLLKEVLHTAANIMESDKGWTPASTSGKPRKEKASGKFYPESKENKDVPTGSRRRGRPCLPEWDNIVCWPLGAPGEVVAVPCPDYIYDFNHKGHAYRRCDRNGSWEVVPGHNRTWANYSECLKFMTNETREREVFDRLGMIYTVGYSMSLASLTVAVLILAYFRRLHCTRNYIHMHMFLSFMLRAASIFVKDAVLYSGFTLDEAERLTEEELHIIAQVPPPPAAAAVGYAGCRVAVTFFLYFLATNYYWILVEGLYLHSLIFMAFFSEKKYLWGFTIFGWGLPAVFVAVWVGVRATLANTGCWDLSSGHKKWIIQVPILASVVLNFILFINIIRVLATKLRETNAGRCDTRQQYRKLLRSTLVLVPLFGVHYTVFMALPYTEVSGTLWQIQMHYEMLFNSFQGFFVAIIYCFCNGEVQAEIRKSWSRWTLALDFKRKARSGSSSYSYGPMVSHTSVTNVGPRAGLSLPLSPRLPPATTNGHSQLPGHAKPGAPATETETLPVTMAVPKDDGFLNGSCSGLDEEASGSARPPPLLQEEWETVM
Put plainly: cAMP response in osteoblastic ROS 17/2.8 cells. The note with it: ROS 17/2.8 cells. It counts as cell-based. Here is the method: The rat osteoblastic cell line ROS 17/2.8 (Majeska, R. J., et al, Endocrinology 107:1494-1503 (1980)) expresses endogenous PTH-1 receptors at levels of 80,000 per cell and the human osteoblastic cell line, SAOS-2, express endogenous PTH-1 receptors at levels of ˜30,000 per cell.
as §2
All calculations were performed using Microsoft Excel. Nonlinear regression analysis of cAMP stimulation data was performed using parameters, defined as the Minimum, Maximum, Emax, midpoint (EC50), and slope of the response curve. The predicted response (yp) for a given dose (x) of peptide was calculated using the following equation: yp=Min+[(Max−Min)/(1+(EC50/x)^slope)]. The initial parameter values were estimated from the primary data, and the Excel “Solver function” was then used to vary the four parameters in order to minimize the differences between the predicted and actual responses (least-squares method) (Bowen, W., & Jerman, J., Trends in Pharmacol. Sci. 16:413-417 (1995)). The statistical significance between two data sets was determined using a one-tailed Student's t-test, assuming unequal variances for the two sets.

The target of test [3] is T2, PTH-1 receptor. Details: expressed in transfected cells; host or cells: LLC-PK1 porcine kidney cells, clone HKRK-B7. Conditions: HKRK-B7 cells; Luck et al. 1999; cited from earlier work.
The conditions of test [4]: subcutaneous, in combination with oral estrogen, postmenopausal osteoporosis; cited from earlier work.
Test [5] relates to truncated PTH-1 receptor rP1R-ΔNt. The note with it: truncated rat PTH receptor vs intact rPTH-1 receptor; Luck et al. 1999; cited from earlier work.
For test [6], the target named is T2, PTH-1 receptor. Conditions: literature; cited from earlier work.
Test [7] concerns the target T4, cloned rat PTH-1 receptor (Rattus norvegicus, UniProt P25961).
T4 construct: host or cells: CHO cells
T4 sequence (P25961 27-591): T3 sequence (P25961 27-591)
The note with it: CHO cells, Azurani 1996; cited from earlier work.

For a further test, the system named is rat renal membranes. The note with it: Rosenblatt 1981; cited from earlier work.

No end group written: not given here.

T1 sequence (P49190 25-550): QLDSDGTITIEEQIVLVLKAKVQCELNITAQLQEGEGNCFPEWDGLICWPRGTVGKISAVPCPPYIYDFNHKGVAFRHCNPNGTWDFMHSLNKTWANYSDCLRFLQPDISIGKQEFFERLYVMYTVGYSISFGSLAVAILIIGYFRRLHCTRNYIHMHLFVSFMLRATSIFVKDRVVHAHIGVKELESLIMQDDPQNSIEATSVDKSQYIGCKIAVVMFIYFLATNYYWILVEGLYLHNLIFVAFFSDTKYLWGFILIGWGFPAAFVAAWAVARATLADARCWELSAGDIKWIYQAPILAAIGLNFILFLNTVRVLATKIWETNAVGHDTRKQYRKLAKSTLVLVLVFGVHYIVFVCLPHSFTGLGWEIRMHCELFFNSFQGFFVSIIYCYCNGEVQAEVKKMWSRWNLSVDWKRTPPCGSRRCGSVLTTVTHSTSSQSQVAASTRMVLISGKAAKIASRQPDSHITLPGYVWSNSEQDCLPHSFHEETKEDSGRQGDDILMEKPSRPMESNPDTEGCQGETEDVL

In the case of “AVAEIQLMHARA-NH2 [compound 5, AlaValAlaGluIleGlnLeuMetHisAlaArgAla-amide]”, the Emax at hPTH-2 Receptor was determined as 501 picomole/well. Besides, at PTH-1 receptor [1], the “cAMP signaling activity (in words)” value is reported as “signaling activity was readily observed” and the Emax is 238 ± 9 picomole/well.
Taken in the same sequence, the figures for “AVAEIQLMHARAK-NH2 [compound 4, AlaValAlaGluIleGlnLeuMetHisAlaArgAlaLys-amide]” were 501 picomole/well, “signaling activity was readily observed” and 239 ± 7 picomole/well.
“AVAEIQLMHARAKW-NH2 [Peptide #2, AlaValAlaGluIleGlnLeuMetHisAlaArgAlaLysTrp-amide]”: the Emax in test [2] worked out at 382 picomole/well; on PTH-1 receptor [1], 262 ± 9 picomole/well. For the same substance, the “fold more potent than native PTH(1-14)” value on PTH-1 receptor [1] (LLC-PK1 cells stably expressing hPTH-1 receptor, cAMP) was 220 fold.
Regarding “AVAEIQLMHQRAKH-NH2 [compound 3, AlaValAlaGluIleGlnLeuMetHisGlnArgAlaLysHis-amide]”, the Emax at PTH-1 receptor [1] is given as 235 ± 3 picomole/well.
As to “PTH(1-9) (AVSEIQLMH-NH2; UniProt P04089 32-40, looked up, fragment) [native rat PTH fragment analog]”, in the test with PTH-1 receptor [3], the “cAMP response of native rat PTH fragments (in words)” value (“cAMP response … (in words)” below) is “little or no cAMP response”.
With “PTH(1-10) (AVSEIQLMHN-NH2; UniProt P04089 32-41, looked up, fragment) [native rat PTH fragment analog]”, the “cAMP response … (in words)” value in the test with PTH-1 receptor [3] is reported as “little or no cAMP response”.
In the case of “PTH(1-11) (AVSEIQLMHNL-NH2; UniProt P04089 32-42, looked up, fragment) [native rat PTH fragment analog]”, the “cAMP response … (in words)” value with PTH-1 receptor [3] was “little or no cAMP response”.
For “PTH(1-12) (AVSEIQLMHNLG-NH2; UniProt P04089 32-43, looked up, fragment) [native rat PTH fragment analog]”, the “cAMP response … (in words)” value in the test with PTH-1 receptor [3] is listed as “little or no cAMP response”.
For the substance “PTH(1-13) (AVSEIQLMHNLGK-NH2; UniProt P04089 32-44, looked up, fragment) [native rat PTH fragment analog]”, the “cAMP response … (in words)” value with PTH-1 receptor [3] is listed as “little or no cAMP response”.
Consider PTH(1-34), for which the bone density entry in test [4] is “increases in bone density”. Further, the “fold weaker with the truncated receptor than with the intact receptor” value in test [5] is recorded as 1000 fold.
In the case of PTH(15-34), the cAMP response result in the test with PTH-1 receptor [6] was “inactive”.
Consider “PTHrP(1-16) (AVSEHQLLHDKGKSIQ; Parathyroid hormone-related protein; UniProt P12272 37-52, looked up, fragment) [short NH2-terminal PTHrP peptide from the literature]”, for which the AC activity result in [7] is “inactive”.
For the substance [A3,Q10]rPTH(1-10) (AVAEIQLMHQ-NH2), the “cAMP signaling activity (in words)” value with PTH-1 receptor [1] was “elicited some activity”.
Take “bPTH(1-12) (AVSEIQFMHNLG; Parathyroid hormone; UniProt P01268 32-43, looked up, fragment) [short NH2-terminal PTH peptide from the literature]”: the adenyl cyclase activity result in the test with rat renal membranes was “inactive”.

These data come from US8568736B2, “Polypeptide derivatives of parathyroid hormone (PTH)” (The General Hospital Corporation, priority 1999, dated 2013).
